The record followed here is PubChem BioAssay (NCI).

Some test systems named below: HT29 colon; ACHN renal; 786-0 renal; NCI-H460 lung; OVCAR-5 ovarian; T-47D breast; MDA-MB-231 breast; NCI-H226 lung; A549 NSCLC; COLO 205 colon.
What all share (experiment): NCI anticancer screen, dose series, 48 h

Each structure is given as a SMILES string. Values joined by “and” are separate entries in the source; they are usually repeats but may differ in a detail not shown here. Equal values may be shown once.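 All cell lines were grown in 96-well plates and treated with compound for 48 hours. At the GI50, growth is halved. At the TGI there is no net growth.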 Bounds are passed on as bounds.

Turning to `COc1cc(/C=C2\CC3C4CC=C5C[C@@H](N6CCCC6)CC[C@]5(C)C4CC[C@]3(C)[C@H]2OC(C)=O)ccc1OCCN1CCCCC1` (some centres not stated), the GI50 with HT29 colon was 1.55 µM; in the assay with ACHN renal, 1.91 µM; in the assay on 786-0 renal, 0.217 µM; with NCI-H460 lung it was 3.18 µM; with OVCAR-5 ovarian, 1.46 µM; with T-47D breast, 2.25 µM. Moreover, the GI50 with MDA-MB-231 breast is 2.27 µM; with NCI-H226 lung it was 2.14 µM. Also, the TGI is greater than 100 µM in the assay on HT29 colon; 3.73 µM with ACHN renal; 1.89 µM with 786-0 renal; greater than 100 µM in the assay with NCI-H460 lung; 2.85 µM with OVCAR-5 ovarian; 3.98 µM in the assay with T-47D breast. The TGI turned out to be 4.1 µM with MDA-MB-231 breast and 4.21 µM in the assay with NCI-H226 lung.
For `CC(F)(F)c1cc(F)ccc1-c1sc2cc(O)ccc2c1Oc1ccc(/C=C/C(=O)O)cc1`, the GI50 in the assay on HT29 colon was 11.8 µM; in the assay with ACHN renal, 10.3 µM; in the assay with 786-0 renal it was 10.2 µM; in the assay on NCI-H460 lung, 8.18 µM; in the assay with OVCAR-5 ovarian, 17.4 µM; in the assay on A549 NSCLC, 10.3 µM. In addition, the GI50 with T-47D breast is 7.1 µM; with MDA-MB-231 breast, 14.3 µM; with NCI-H226 lung, 5.78 µM. The TGI came out at 36.1 µM in the assay on HT29 colon; 45.5 µM in the assay with ACHN renal; 31.2 µM in the assay on 786-0 renal; 23.5 µM with NCI-H460 lung; 37.7 µM in the assay with OVCAR-5 ovarian; 29.9 µM in the assay with A549 NSCLC. For the same molecule, the TGI in the assay with T-47D breast was found to be 50 µM; with MDA-MB-231 breast, 35 µM; in the assay on NCI-H226 lung it was 25 µM.
With `CC[C@@H](C)[C@H]([C@H](CC(=O)N1CCC[C@@H]1[C@@H](OC)[C@H](C)C(=O)N[C@H](Cc1ccccc1)c1nccs1)OC)N(C)C(=O)[C@H](NC(=O)[C@@H](C(C)C)N(C)C)C(C)C`, the TGI was 0.000849 µM with HT29 colon; greater than 100 µM in the assay with ACHN renal; 44.1 µM in the assay on 786-0 renal; 0.000302 µM in the assay on COLO 205 colon; 0.00195 µM in the assay on NCI-H460 lung; greater than 100 µM in the assay with T-47D breast. Besides, the TGI in the assay with MDA-MB-231 breast was 0.000867 µM and < 0.048 µM. In addition, the GI50 with OVCAR-5 ovarian is less than 0.0152 µM; with A549 NSCLC it was 0.000425 µM; in the assay with MDA-MB-231 breast, 0.000147 µM.
`C[C@@]1(c2ncncc2F)NC(=O)c2cc(-c3cn[nH]c3)ccc21`: the GI50 is 7.46 µM in the assay with HT29 colon; 23.6 µM in the assay with 786-0 renal; 25 µM in the assay with NCI-H460 lung; 22.4 µM in the assay with OVCAR-5 ovarian; 28.2 µM in the assay on A549 NSCLC; 27.9 µM in the assay on T-47D breast. In addition, the GI50 in the assay on MDA-MB-231 breast was 27.6 µM; in the assay with NCI-H226 lung, 20.1 µM. Further, the TGI is 90.9 µM in the assay on HT29 colon; 91.1 µM in the assay with 786-0 renal; greater than 100 µM in the assay on NCI-H460 lung; 99 µM with OVCAR-5 ovarian; greater than 100 µM in the assay with A549 NSCLC; greater than 100 µM in the assay on T-47D breast. The TGI in the assay on MDA-MB-231 breast is 89.5 µM; in the assay with NCI-H226 lung it was greater than 100 µM.
Consider `COc1ccc(NC(=O)Nc2ccc(Nc3nc(C)cc(Nc4ccc(C)cc4)n3)cc2)cc1`, for which the GI50 with ACHN renal is 1.75 µM; in the assay on 786-0 renal, 0.253 µM; in the assay with COLO 205 colon, 1.94 µM; in the assay with OVCAR-5 ovarian, 1.72 µM; in the assay with T-47D breast it was 1.78 µM; with MDA-MB-231 breast, 0.894 µM. The TGI in the assay on ACHN renal is 3.13 µM; in the assay with 786-0 renal, 0.702 µM; with COLO 205 colon, 3.62 µM; with OVCAR-5 ovarian it was 3.22 µM; in the assay on T-47D breast, 4.24 µM; with MDA-MB-231 breast it was 2.46 µM.
For `Cc1[nH]nc2c1N=C(c1ccccc1F)c1cc(C#N)ccc1N2`, the GI50 with HT29 colon is 0.118 µM; in the assay with ACHN renal it was 0.326 µM; with 786-0 renal, 0.801 µM; with COLO 205 colon, 0.134 µM; in the assay with NCI-H460 lung, 0.106 µM; in the assay with OVCAR-5 ovarian, 7.12 µM. The GI50 with T-47D breast was 1.36 µM; in the assay on MDA-MB-231 breast, 2.59 µM; in the assay with NCI-H226 lung it was 0.322 µM. The TGI in the assay on HT29 colon was determined as 7.41 µM; in the assay with ACHN renal, 5.37 µM; in the assay with 786-0 renal, 7.27 µM; with COLO 205 colon, 5.34 µM; in the assay on NCI-H460 lung it was 15.6 µM; in the assay on OVCAR-5 ovarian, 18.8 µM. Besides, the TGI in the assay on T-47D breast was greater than 15.2 µM; in the assay on MDA-MB-231 breast, 11.7 µM; with NCI-H226 lung, 4.11 µM.
For the molecule `COc1ccc(C2C(c3ccccc3)C(=O)N2c2cc(OC)c(OC)c(OC)c2)cc1I` (configuration not stated), the GI50 was 0.344 µM with HT29 colon; 0.397 µM in the assay with 786-0 renal; 0.228 µM in the assay with COLO 205 colon; 0.337 µM in the assay on NCI-H460 lung; 0.526 µM in the assay with OVCAR-5 ovarian; 0.479 µM in the assay with A549 NSCLC. Also, the GI50 in the assay with T-47D breast was greater than 100 µM; in the assay on MDA-MB-231 breast it was 0.455 µM; in the assay with NCI-H226 lung, 15.6 µM. In addition, the TGI in the assay with HT29 colon was 90.1 µM; in the assay on 786-0 renal, greater than 100 µM; in the assay with COLO 205 colon, 0.648 µM; in the assay with NCI-H460 lung, greater than 100 µM; in the assay on OVCAR-5 ovarian it was greater than 100 µM; in the assay with A549 NSCLC it was greater than 100 µM. Besides, the TGI with T-47D breast, in the assay on MDA-MB-231 breast and in the assay on NCI-H226 lung was greater than 100 µM throughout.
For the molecule `CC(C)c1cc(CNc2nc(Nc3cc(C4CC4)[nH]n3)cc(N3CCN(C)CC3)n2)on1`, the TGI with ACHN renal was > 10 µM and 6.66 µM; in the assay with 786-0 renal it was > 10 µM and 3.72 µM; with NCI-H460 lung, > 10 µM and 1.42 µM; with OVCAR-5 ovarian, > 10 µM and 3.91 µM; in the assay with A549 NSCLC, > 10 µM and 11.8 µM; in the assay on T-47D breast it was > 10 µM and 9.84 µM. In addition, the TGI is > 10 µM and 5.42 µM with MDA-MB-231 breast; 4.18 µM and 3.6 µM in the assay with NCI-H226 lung. For the same molecule, the GI50 in the assay on 786-0 renal is 1.43 µM and 0.223 µM; with MDA-MB-231 breast it was 1.29 µM and 0.151 µM; in the assay with NCI-H226 lung it was 0.363 µM and 0.0576 µM.
As for `C=CC[Se]C(=O)Cc1c(C)n(C(=O)c2ccc(Cl)cc2)c2ccc(OC)cc12`, the GI50 is 3.39 µM in the assay on HT29 colon; 1.79 µM in the assay on ACHN renal; 1.73 µM in the assay with 786-0 renal; 2.14 µM with COLO 205 colon; 0.491 µM in the assay on NCI-H460 lung; 1.72 µM in the assay with OVCAR-5 ovarian. Further, the GI50 in the assay with A549 NSCLC is 1.62 µM; with T-47D breast, 2.29 µM; in the assay with MDA-MB-231 breast it was 1.66 µM. Moreover, the TGI was greater than 100 µM with HT29 colon; 3.25 µM in the assay with ACHN renal; 3.19 µM in the assay on 786-0 renal; 4.38 µM with COLO 205 colon; 3.19 µM with NCI-H460 lung; 3.21 µM in the assay with OVCAR-5 ovarian. Moreover, the figures for the TGI in the assay on A549 NSCLC, in the assay with T-47D breast and with MDA-MB-231 breast were 6.18 µM, 5.7 µM and 3.21 µM, respectively.
